Assays:
CDK2/Cyclin E2 = CDK2/Cyclin E2 (Homo sapiens, UniProt P24941); experiment: CDK2/CyclinE2 enzymatic activity assay (TR-FRET); format: biochemical; conditions: ATP 1 mM final, read-out: CDK2_E1 IC50
Method: CDK2/CyclinE2 Enzymatic Activity Assay
(§1) The inhibitory activity of compounds was evaluated in vitro using TR-FRET assay with white 384-well low volume microplate (Greiner Bio-One). CDK2/Cyclin E2 catalyzed phosphorylation of peptide in the presence and absence of compounds was measured and used in IC50 determination. Recombinant protein complex CDK2/Cyclin E2, expressed from insect cell, was purchased from ProQinase. Testing compounds were dissolved in DMSO at 1 mM and tested in 9-dose IC50 mode. The reaction mixture was prepared by mixing CDK2/CyclinE2 (1 nM final), ULight-4E-BP1 (50 nM final, Perkinelmer, TRF0128-D), and ATP (1 mM final) in assay buffer (20 mM of HEPES pH 7.4, 1 mM of EGTA, 0.05% BSA, 0.005% Tween 20, and 1 mM TCEP). The compound of interest in DMSO was added to each well in 3-fold serial dilution by dispenser (TECAN D300E) to make a 9.9 μL of reaction mixture. After 20 minutes preincubation at room temperature, 0.1 μL MgCl2 (10 mM final) was added to initiate the reaction. Following a 45 minutes incubation at 37° C., the reaction was stopped by addition of 2 μL of quenching buffer consisting of Lance detection buffer (Perkinelmer CR97-100C), LANCE Ultra Europium-anti-P-4E-BP1 (Perkinelmer, TRF0216-D), EDTA, and incubate at room temperature for additional 60 minutes in dark. The reaction signal was measured by Envision multimode plate reader (PerkinElmer, 2102-0010). IC50 values were determined by fitting the data to the standard 4 parameters with Hill Slope using GraphPad Prism software.

CDK4/Cyclin D1 = target: T1, CDK4/Cyclin D1 (Homo sapiens, UniProt P11802); experiment: CDK4/CyclinD1 enzymatic activity assay (TR-FRET); format: biochemical; conditions: ATP 2 mM final, read-out: CDK4_D1 IC50
T1 construct: purchased ProQinase; host or cells: insect cell
Method: CDK4/CyclinD1 Enzymatic Activity Assay
as §1, with “Bio-One). CDK4/Cyclin D1” for “Bio-One). CDK2/Cyclin E2”, “complex CDK4/Cyclin D1,” for “complex CDK2/Cyclin E2,”, “mixing CDK4/CyclinD1” for “mixing CDK2/CyclinE2”, “ULight-4E-BP1 (100” for “ULight-4E-BP1 (50”, “ATP (2” for “ATP (1”

OVCAR3 p-RB = experiment: pRB ICW assay in OVCAR3 cells; format: cell-based; conditions: Homo sapiens, OVCAR-3, 2 hours incubation with compound
Method: pRB ICW Assay in OVCAR3 Cells
OVCAR3 cells were maintained in RPMI (Corning, Catalog #: 10-040-CV) supplemented with 10% v/v FBS (Gibco, Catalog #: 26140-079), 1% v/v Penicillin Streptomycin (Gibco, Catalog #15140-122.) OVCAR3 cells grown at log phase were trypsinized, counted, and resuspended in fresh medium to reach a final density of 6.7e4 cells/ml and 75 μL of culture were dispensed into a 384-well plate (Falcon, cat #353962) using Multidrop Combi dispenser (Thermo Scientific). The next day, compounds were dispensed as a 9-point, ½ log serial dilution using a Tecan digital dispenser (D300e), and cells were incubated with compound for 2 hours in a humidified incubator at 37° C. A reference compound at a final concentration of 10 μM was used as a control for maximum inhibition. Each compound was tested in duplicates in each experiment. At the end of the incubation, 25 μl of 16% paraformaldehyde (Electron Microscopy, cat #15710) was slowly added to each well and the plate was incubated at room temperature (RT) for 30 minutes to fix cells. Cells were then permeabilized by incubating with 50 μl/well of wash buffer (1×PBS with 0.1% Triton X-100) 5×5 minutes, followed by 1 hour blocking with 30 μl/well of Odyssey blocking buffer (Li—COR, cat #927-40000), all at RT. Anti-phosphor RB antibody (Cell signaling 8516S) was diluted 1:1000 in Odyssey blocking buffer and 20 μl was added to all wells and incubated overnight in 4° C. with gently rocking. The next day, cells were washed 5×5 min with 50 μl/well of wash buffer, followed with 1 hour incubation with secondary antibody and DRAQ5 diluted in Odyssey blocking buffer (1:500 dilution for secondary antibody and 1:2000 dilution for DRAQ5), 5×5 min washes, and one last wash with water. Plates were dried in 37° C. oven for 5 min and scanned using Li—COR Odyssey CLx imaging system to acquire intensities at 700 and 800 nm channels.

T1 sequence (P11802 whole entry): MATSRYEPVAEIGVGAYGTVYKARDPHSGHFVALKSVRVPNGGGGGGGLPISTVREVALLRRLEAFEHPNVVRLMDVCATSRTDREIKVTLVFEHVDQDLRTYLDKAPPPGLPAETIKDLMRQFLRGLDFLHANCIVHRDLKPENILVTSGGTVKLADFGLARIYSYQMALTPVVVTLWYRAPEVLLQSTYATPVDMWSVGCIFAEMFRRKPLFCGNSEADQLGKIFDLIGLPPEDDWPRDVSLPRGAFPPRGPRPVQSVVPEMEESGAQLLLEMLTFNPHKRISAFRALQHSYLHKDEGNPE
T1 sequence (P24385 whole entry partner): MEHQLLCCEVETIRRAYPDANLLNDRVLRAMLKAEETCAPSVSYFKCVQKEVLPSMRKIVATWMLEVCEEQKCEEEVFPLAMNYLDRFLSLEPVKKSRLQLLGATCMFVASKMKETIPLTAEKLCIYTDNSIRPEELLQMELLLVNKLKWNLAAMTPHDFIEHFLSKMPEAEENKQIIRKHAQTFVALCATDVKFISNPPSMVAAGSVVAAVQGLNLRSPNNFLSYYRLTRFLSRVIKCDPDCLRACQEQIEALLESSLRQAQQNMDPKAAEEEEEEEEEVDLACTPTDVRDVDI

| Structure (SMILES) | IC50 (CDK2/Cyclin E2) [nM] | IC50 (CDK4/Cyclin D1) [nM] | IC50 (OVCAR3 p-RB) [nM] |
| --- | --- | --- | --- |
| Cn1cnc(S(=O)(=O)N2CC[C@H](Nc3ncc(C(F)(F)F)c(-c4cc5c(s4)C(C)(C)NC5=O)n3)[C@H](F)C2)c1 [Example 15, 2-(2-(((3R,4S)-3-fluoro-1-((1-methyl-1H-imidazol-4-yl)sulfonyl)piperidin-4-yl)amino)-5-(trifluoro-methyl)pyrimidin-4-yl)-6,6-dimethyl-5,6-dihydro-4H-thieno[2,3-c]pyrrol-4-one] | ≤ 100 | ≤ 100 | ≤ 100 |
| C[C@@H]1CN(S(=O)(=O)c2c[nH]cn2)CC[C@@H]1Nc1ncc(C(F)(F)F)c(-c2cc3c(s2)C(C)(C)NC3=O)n1 [Example 10, 2-(2-(((3R,4S)-1-((1H-imidazol-4-yl)sulfonyl)-3-methylpiperidin-4-yl)amino)-5-(trifluoro-methyl)pyrimidin-4-yl)-6,6-dimethyl-5,6-dihydro-4H-thieno[2,3-c]pyrrol-4-one] | ≤ 100 | ≤ 100 | ≤ 100 |
| CS(=O)(=O)N1CCC(Nc2ncc(C(F)(F)F)c(-c3cc4c(s3)C(=O)NC4)n2)CC1 [Example 24, 2-(2-((1-(Methylsulfonyl)piperidin-4-yl)amino)-5-(trifluoromethyl)pyrimidin-4-yl)-4,5-dihydro-6H-thieno[2,3-c]pyrrol-6-one] | ≤ 100 | > 500 | > 500 |
| CC1(C)NC(=O)c2cc(-c3nc(NC4CCN(S(C)(=O)=O)CC4)ncc3C(F)(F)F)sc21 [Example 12, 6,6-dimethyl-2-(2-((1-(methylsulfonyl)piperidin-4-yl)amino)-5-(trifluoro-methyl)pyrimidin-4-yl)-5,6-dihydro-4H-thieno[2,3-c] pyrrol-4-one] | ≤ 100 | ≤ 100 | ≤ 100 |
| Cc1c(-c2nc(N[C@H]3CCN(S(C)(=O)=O)C[C@H]3C)ncc2F)sc2c1C(=O)NC2(C)C [Example 1, 2-(5-Fluoro-2-(((3R,4S)-3-methyl-1-(methylsulfonyl)piperidin-4-yl)amino)pyrimidin-4-yl)-3,6,6-trimethyl-5,6-dihydro-4H-thieno[2,3-c]pyrrol-4-one] | ≤ 100 | ≤ 100 | ≤ 100 |
| CS(=O)(=O)N1CCC(Nc2ncc(C(F)(F)F)c(-c3cc4c(s3)CNC4=O)n2)CC1 [Example 17, 2-(2-((1-(methylsulfonyl)piperidin-4-yl)amino)-5-(trifluoromethyl)pyrimidin-4-yl)-5,6-dihydro-4H-thieno[2,3-c]pyrrol-4-one] | ≤ 100 | ≤ 100 | ≤ 100 |
| Cn1cc(S(=O)(=O)N2CC[C@@H](Nc3ncc(C(F)(F)F)c(-c4cc5c(s4)C(C)(C)NC5=O)n3)[C@H](F)C2)cn1 [Example 16, 2-(2-(((3R,4R)-3-fluoro-1-((1-methyl-1H-pyrazol-4-yl)sulfonyl)piperidin-4-yl)amino)-5-(trifluoro-methyl)pyrimidin-4-yl)-6,6-dimethyl-5,6-dihydro-4H-thieno[2,3-c]pyrrol-4-one] | ≤ 100 | ≤ 100 | ≤ 100 |
| Cn1cc(S(=O)(=O)N2CCC(Nc3ncc(C(F)(F)F)c(-c4cc5c(s4)CNC5=O)n3)CC2)cn1 [Example 20, 2-(2-((1-((1-methyl-1H-pyrazol-4-yl)sulfonyl)piperidin-4-yl)amino)-5-(trifluoromethyl)pyrimidin-4-yl)-5,6-dihydro-4H-thieno[2,3-c]pyrrol-4-one] | ≤ 100 | ≤ 100 | ≤ 100 |
| Cn1cc(S(=O)(=O)N2CCC(Nc3ncc(C(F)(F)F)c(-c4cc5c(s4)C(=O)NC5)n3)CC2)cn1 [Example 23, 2-(2-((1-((1-Methyl-1H-pyrazol-4-yl)sulfonyl)piperidin-4-yl)amino)-5-(trifluoromethyl)pyrimidin-4-yl)-4,5-dihydro-6H-thieno[2,3-c]pyrrol-6-one] | ≤ 100 | 100 to 500 | 100 to 500 |
